Data reported in patent US20260251650A1, “LATERAL FLOW DEVICE FOR […]'S DISEASE USING THE T14 PEPTIDE” (Neuro-Bio Ltd, priority 2022, published 2026).

Assays:
[1] = system: anti-T14 antibodies (conjugate and test line); assay: Sandwich lateral flow test (half dipstick), peptide detection; assay type: binding, rabbit; conditions: peptide at 0.1 mg/ml, FIG. 11
Procedure: (§1) The detector reagent was a 40 nm gold particle which is passively conjugated to the antibodies. Conjugates were prepared for: AB16 (rabbit polyclonal), AB117 (rabbit monoclonal) and AB104 (rabbit monoclonal).
(§2) In this format, a gold conjugate is in liquid form (in the well) rather than dry enabling high throughput of the test conditions. The test line is “dotted” onto the membrane by pipette to facilitate evaluation of a range of conditions.
(§3) • A) Inhibition Assay: T14 peptide • T30 peptide • B) Sandwich Assay: Rabbit polyclonal, AB16 • Rabbit monoclonal, AB117 • Rabbit monoclonal, AB104 • Rabbit monoclonal, AB102
Each antibody was “dotted” onto CN180 membrane (1 μl neat, i.e. 1 mg/ml, concentration) and the membrane dried for 15 mins at 37° C. The goat anti-rabbit antibody was applied to the membrane as a control line. Conjugate and test line antibody combinations were then evaluated in a matrix study in the lateral flow format.
• (i) 10 μl peptide (either T14 or T30 at 0.1 mg/ml) and 10 μl TBST (Tris buffered saline 1% Tween 20) added to Well 1; • (ii) The dipstick was added to Well 1; • (iii) The dipstick was run to completion (no liquid remaining); • (iv) The dipstick was added to Well 2 containing 20 μl conjugate; • (v) The dipstick was run to completion (no liquid remaining); and • (vi) The dipstick was added to Well 3 containing 20 μl TBST.

[2] = system: anti-T14 antibody 40 nm gold conjugates; assay: Inhibition lateral flow test (half dipstick), peptide dotted on membrane; assay type: binding, rabbit; conditions: peptide dotted at 1, 0.5 and 0.25 mg/ml on CN180 membrane, FIG. 10
Procedure: as §1, §2
The nitrocellulose membrane was CN180.
as §3
Peptide (T14 or T30) was diluted to 1, 0.5 and 0.25 mg/ml in deionised water. The peptide was “dotted” onto CN180 nitrocellulose membrane (1 μl at each concentration) and the membrane dried for 15 minutes at 37° C. The goat anti-rabbit antibody was applied to the membrane as a control line.
• (i) 20 μl gold conjugate (neat) and 20 μl TBST (Tris buffered saline 1% Tween 20) added to Well 1; • (ii) The dipstick was added to Well 1; • (iii) The dipstick was run to completion (no liquid remaining); and • (iv) The dipstick was added to Well 2 containing 20 μl TBST only to wash the test strip.

Sequence | detection of peptide by sandwich LFT [1] | detection of peptide by inhibition LFT [2]
AEFHRWSSYMVHWK (listed as Homo sapiens) [T14, 14 amino acid peptide derived from the C-terminus of acetylcholinesterase; biomarker] | able to detect | able to detect
KAEFHRWSSYMVHWKNQFDHYSKQDRCSDL (KAEFHRWSSYMVHWKNQFHDYSKQDRCSDL; listed as Homo sapiens) [T30, last 30 amino acid residues of tailed acetylcholinesterase] | able to detect | able to detect
